According to US20260108521A1, “GSPT1 DEGRADERS, COMPOSITIONS COMPRISING THE DEGRADER, AND METHODS OF USING THE SAME” (BIOFRONT LTD, priority 2022, published 2026):

Assays:
GSPT1 protein = target: T1, GSPT1 protein (Homo sapiens, UniProt P15170+Q96SW2); experiment: GSPT1 degradation assay (western blot) in HL-60 cells; format: cell-based; conditions: GSPT1 protein level, 2h incubation, western blot normalized to beta-Actin; for inhibition at 0.1 µM: 0.1 μM compound; for inhibition at 1 µM: 1 μM compound
T1 construct: endogenous in cells; host or cells: HL-60 cells
T1 sequence (P15170 whole entry): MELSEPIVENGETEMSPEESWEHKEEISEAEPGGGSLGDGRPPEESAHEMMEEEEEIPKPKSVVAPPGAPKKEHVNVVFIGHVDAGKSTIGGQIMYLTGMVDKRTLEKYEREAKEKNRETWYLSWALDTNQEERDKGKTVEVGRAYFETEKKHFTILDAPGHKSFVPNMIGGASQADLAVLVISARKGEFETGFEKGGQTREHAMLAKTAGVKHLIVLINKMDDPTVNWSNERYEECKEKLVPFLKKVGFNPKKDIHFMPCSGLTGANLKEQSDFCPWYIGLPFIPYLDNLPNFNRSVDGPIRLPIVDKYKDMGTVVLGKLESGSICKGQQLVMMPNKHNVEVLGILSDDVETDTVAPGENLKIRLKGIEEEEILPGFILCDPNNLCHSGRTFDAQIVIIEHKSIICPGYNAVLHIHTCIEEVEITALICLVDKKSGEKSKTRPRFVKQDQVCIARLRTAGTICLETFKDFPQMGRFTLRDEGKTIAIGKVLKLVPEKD
T1 sequence (Q96SW2 whole entry): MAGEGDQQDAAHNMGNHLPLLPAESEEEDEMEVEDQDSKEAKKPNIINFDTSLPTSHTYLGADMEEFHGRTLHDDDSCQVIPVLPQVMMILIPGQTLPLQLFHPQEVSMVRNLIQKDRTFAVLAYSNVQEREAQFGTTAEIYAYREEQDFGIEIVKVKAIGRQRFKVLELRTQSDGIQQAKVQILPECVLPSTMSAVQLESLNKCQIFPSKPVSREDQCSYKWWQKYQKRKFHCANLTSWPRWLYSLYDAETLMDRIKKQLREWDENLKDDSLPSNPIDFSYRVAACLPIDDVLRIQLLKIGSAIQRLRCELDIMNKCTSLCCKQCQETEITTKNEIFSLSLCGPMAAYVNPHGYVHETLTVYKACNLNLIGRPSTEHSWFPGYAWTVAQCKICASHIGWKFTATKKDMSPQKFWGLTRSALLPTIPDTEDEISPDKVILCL
T1 sequence (Q16531 whole entry partner): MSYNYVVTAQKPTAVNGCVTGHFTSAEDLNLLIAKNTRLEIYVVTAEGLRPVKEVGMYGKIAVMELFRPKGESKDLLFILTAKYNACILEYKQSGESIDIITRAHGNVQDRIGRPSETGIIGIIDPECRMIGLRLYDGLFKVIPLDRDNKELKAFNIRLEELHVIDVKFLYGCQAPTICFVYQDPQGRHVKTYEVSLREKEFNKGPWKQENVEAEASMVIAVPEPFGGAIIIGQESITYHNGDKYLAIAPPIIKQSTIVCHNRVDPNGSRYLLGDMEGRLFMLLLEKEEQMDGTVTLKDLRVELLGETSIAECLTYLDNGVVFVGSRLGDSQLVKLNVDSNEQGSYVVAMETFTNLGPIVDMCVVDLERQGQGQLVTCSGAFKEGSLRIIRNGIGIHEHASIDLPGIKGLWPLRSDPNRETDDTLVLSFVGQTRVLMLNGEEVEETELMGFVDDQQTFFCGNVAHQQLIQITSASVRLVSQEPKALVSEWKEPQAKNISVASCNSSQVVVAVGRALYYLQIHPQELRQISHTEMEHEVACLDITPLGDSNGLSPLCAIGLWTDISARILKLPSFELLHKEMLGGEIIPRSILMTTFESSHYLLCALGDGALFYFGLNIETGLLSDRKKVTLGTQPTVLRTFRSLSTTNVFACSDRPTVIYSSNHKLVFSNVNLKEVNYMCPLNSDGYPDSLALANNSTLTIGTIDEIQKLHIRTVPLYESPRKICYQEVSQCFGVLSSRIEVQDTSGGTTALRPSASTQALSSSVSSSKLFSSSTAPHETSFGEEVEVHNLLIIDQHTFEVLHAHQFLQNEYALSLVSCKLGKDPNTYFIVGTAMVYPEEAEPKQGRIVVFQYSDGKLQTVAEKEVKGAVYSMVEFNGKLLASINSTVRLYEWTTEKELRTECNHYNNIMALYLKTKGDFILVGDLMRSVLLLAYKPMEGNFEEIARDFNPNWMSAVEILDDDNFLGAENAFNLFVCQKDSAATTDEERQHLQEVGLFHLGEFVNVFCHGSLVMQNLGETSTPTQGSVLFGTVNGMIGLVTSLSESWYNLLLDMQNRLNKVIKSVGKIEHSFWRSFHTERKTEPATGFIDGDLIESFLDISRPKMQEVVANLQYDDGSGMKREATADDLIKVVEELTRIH
Experimental: HL-60 cells (4×10^^6 cells/well) were seeded in 6-well culture plate (Costar, 3516) and treated with a variety of concentrations of test compound. After 2h incubation, cells were collected and lysed. The protein concentration was determined by BCA protein assay kit from Thermo (23227). The GSPT1 protein level was determined by western blots, using GSPT1 polyclonal antibody. Proteins were loaded into each well of the pre-casting gels and subjected to electrophoretic separation by SDS-PAGE. The protein resolved by SDS-PAGE were transferred to PVDF, blocked by 5% skim milk and probed with anti-GSPT1 antibody (Proteintech, 10763-1-AP) or anti-β-actin antibody (CST, 3700S), using following standard western blotting procedure. Blots intensities were quantified using ImageJ software and the intensity of GSPT1 bands were normalized to beta-Actin bands, respectively. The GSPT1 degradation results were then calculated. Reported compound C84971 (see WO2021126974A1 and WO2021126973A1) was used as a reference.

HL-60 cells = experiment: Cell viability assay (CellTiter-Glo); format: cell-based; conditions: Homo sapiens, 72 h incubation, 6-point serial dilution
Experimental: HL-60 cells were seeded at a density of 7000 cells per well in 96-well culture plates (Corning 3903) with IMDM and treated with test compounds following a 6-point serial dilution. RPMI 1640 (0.1% DMSO) was used as control for each well. After 72 h incubation, cell viability was determined using the CellTiter-Glo assay kit (Promega, G9242) according to the manufacturer's instructions. The dose-response curves were determined and IC50 values were calculated using the GraphPad Prism software following a nonlinear regression method.

Compound	inhibition at 0.1 µM (GSPT1 protein)	inhibition at 1 µM (GSPT1 protein)	IC50 (HL-60 cells)
O=C1CCC(N2C(=O)c3ccc(N4CCC(CN5CCCN(c6cccc(-c7cnccc7Cl)c6)C5=O)CC4)cc3C2=O)C(=O)N1 (stereo not drawn) [Compound 3, 5-(4-((3-(3-(4-chloropyridin-3-yl)phenyl)-2-oxotetrahydropyrimidin-1(2H)-yl)methyl)piperidin-1-yl)-2-(2,6-dioxopiperidin-3-yl)isoindoline-1,3-dione]	30%	48%	234 nM
CCc1c[nH]c2ncc(-c3cccc(N4CCCN(CCC5CN(c6ccc7c(c6)C(=O)N(C6CCC(=O)NC6=O)C7=O)C5)C4=O)c3)c(Cl)c12 (stereo not drawn) [Compound F, 5-(3-(2-(3-(3-(4-chloro-3-ethyl-1H-pyrrolo[2,3-b]pyridin-5-yl)phenyl)-2-oxotetrahydropyrimidin-1(2H)-yl)ethyl)azetidin-1-yl)-2-(2,6-dioxopiperidin-3-yl)isoindoline-1,3-dione]	86%	95%	9.2 nM
O=C1CCC(N2C(=O)c3ccc(N4CC(CCN5CCCN(c6cccc(-c7cnc8ccccc8c7)c6)C5=O)C4)cc3C2=O)C(=O)N1 (stereo not drawn) [Compound 23, 2-(2,6-dioxopiperidin-3-yl)-5-(3-(2-(2-oxo-3-(3-(quinolin-3-yl)phenyl)tetrahydropyrimidin-1(2H)-yl)ethyl)azetidin-1-yl)isoindoline-1,3-dione]	33%	45%	> 1000 nM
O=C1CCC(N2C(=O)c3ccc(N4CC(CCN5CCCN(c6cccc(-c7cnc8[nH]ncc8c7)c6)C5=O)C4)cc3C2=O)C(=O)N1 (stereo not drawn) [Compound 25, 2-(2,6-dioxopiperidin-3-yl)-5-(3-{2-[2-oxo-3-(3-{1H-pyrazolo[3,4-b]pyridin-5-yl}phenyl)-1,3-diazinan-1-yl]ethyl}azetidin-1-yl)isoindole-1,3-dione]	55%	57%	137 nM
O=C1CCC(N2C(=O)c3ccc(N4CCC(CN5CCCN(c6ccccc6)C5=O)CC4)cc3C2=O)C(=O)N1 (stereo not drawn) [Compound 1, 2-(2,6-dioxopiperidin-3-yl)-5-{4-[(2-oxo-3-phenyl-1,3-diazinan-1-yl)methyl]piperidin-1-yl}isoindole-1,3-dione]	45%	51%	1460 nM
O=C1CCC(N2C(=O)c3ccc(N4CCC(CN5CCCCN(c6ccccc6)C5=O)CC4)cc3C2=O)C(=O)N1 (stereo not drawn) [Compound 6, 2-(2,6-dioxopiperidin-3-yl)-5-(4-((2-oxo-3-phenyl-1,3-diazepan-1-yl)methyl)piperidin-1-yl)isoindoline-1,3-dione]	46%	52%	400 nM
O=C1CCC(N2Cc3cc(N4CCC(CN5CCCN(c6ccccc6)C5=O)CC4)ccc3C2=O)C(=O)N1 (stereo not drawn) [Compound 19, 3-(1-oxo-5-(4-((2-oxo-3-phenyltetrahydropyrimidin-1(2H)-yl)methyl)piperidin-1-yl)isoindolin-2-yl)piperidine-2,6-dione]	15%	38%	> 1000 nM
O=C1CCC(N2C(=O)c3ccc(N4CCC(CN5CCCN(c6cccc(Br)c6)C5=O)CC4)cc3C2=O)C(=O)N1 (stereo not drawn) [Compound 9, 5-(4-((3-(3-bromophenyl)-2-oxotetrahydropyrimidin-1(2H)-yl)methyl)piperidin-1-yl)-2-(2,6-dioxopiperidin-3-yl)isoindoline-1,3-dione]	0%	15%	> 1000 nM
O=C1CCC(N2C(=O)c3ccc(N4CCC(CN5CCCN(c6cccc(C7CC7)c6)C5=O)CC4)cc3C2=O)C(=O)N1 (stereo not drawn) [Compound 15, 5-(4-((3-(3-cyclopropylphenyl)-2-oxotetrahydropyrimidin-1(2H)-yl)methyl)piperidin-1-yl)-2-(2,6-dioxopiperidin-3-yl)isoindoline-1,3-dione]	30%	57%	290 nM
O=C1CCC(N2C(=O)c3ccc(N4CC(CCN5CCN(c6ccccc6)C5=O)C4)cc3C2=O)C(=O)N1 (stereo not drawn) [Compound 12, 2-(2,6-dioxopiperidin-3-yl)-5-(3-(2-(2-oxo-3-phenylimidazolidin-1-yl)ethyl)azetidin-1-yl)isoindoline-1,3-dione]	0%	0%	> 1000 nM
CCc1c[nH]c2ccc(-c3cccc(N4CCCN(CCC5CN(c6ccc7c(c6)C(=O)N(C6CCC(=O)NC6=O)C7=O)C5)C4=O)c3)c(Cl)c12 (stereo not drawn) [Compound 26, 5-(3-(2-(3-(3-(4-chloro-3-ethyl-1H-indol-5-yl)phenyl)-2-oxotetrahydropyrimidin-1(2H)-yl)ethyl)azetidin-1-yl)-2-(2,6-dioxopiperidin-3-yl)isoindoline-1,3-dione]	63%	85%	78 nM
O=C1CCC(N2C(=O)c3ccc(N4CC(CCN5CCCN(c6cccc(Br)c6)C5=O)C4)cc3C2=O)C(=O)N1 (stereo not drawn) [Compound 10, 5-(3-(2-(3-(3-bromophenyl)-2-oxotetrahydropyrimidin-1(2H)-yl)ethyl)azetidin-1-yl)-2-(2,6-dioxopiperidin-3-yl)isoindoline-1,3-dione]	40%	45%	144 nM
O=C1CCC(N2C(=O)c3ccc(N4CC(CCN5CCCN(c6cccc(-c7cnccc7Cl)c6)C5=O)C4)cc3C2=O)C(=O)N1 (stereo not drawn) [Compound 8, 5-(3-(2-(3-(3-(4-chloropyridin-3-yl)phenyl)-2-oxotetrahydropyrimidin-1(2H)-yl)ethyl)azetidin-1-yl)-2-(2,6-dioxopiperidin-3-yl)isoindoline-1,3-dione]	70%	63%	196 nM
O=C1CCC(N2Cc3ccc(N4CCNC4=O)cc3C2=O)C(=O)N1 (stereo not drawn) [Compound C84971, reference compound]	0%	0%	> 5000 nM
O=C1CCC(N2C(=O)c3ccc(N4CCC(CN5CCCN(c6ccc7ncccc7c6)C5=O)CC4)cc3C2=O)C(=O)N1 (stereo not drawn) [Compound 11, 2-(2,6-dioxopiperidin-3-yl)-5-(4-((2-oxo-3-(quinolin-6-yl)tetrahydropyrimidin-1(2H)-yl)methyl)piperidin-1-yl)isoindoline-1,3-dione]	14%	< 5%	> 1000 nM
CCc1c(N)ccc(-c2cccc(N3CCCN(CC4CCN(c5ccc6c(c5)C(=O)N(C5CCC(=O)NC5=O)C6=O)CC4)C3=O)c2)c1Cl (stereo not drawn) [Compound 29, 5-(4-((3-(4′-amino-2′-chloro-3′-ethyl-[1,1′-biphenyl]-3-yl)-2-oxotetrahydropyrimidin-1(2H)-yl)methyl)piperidin-1-yl)-2-(2,6-dioxopiperidin-3-yl)isoindoline-1,3-dione]	45%	47%	222 nM
O=C1CCC(N2C(=O)c3cc(F)c(N4CCC(CCN5CCCN(c6cccc(-c7cnc8[nH]cc(C9CC9)c8c7Cl)c6)C5=O)CC4)cc3C2=O)C(=O)N1 (stereo not drawn) [Compound B, 5-(4-(2-(3-(3-(4-chloro-3-cyclopropyl-1H-pyrrolo[2,3-b]pyridin-5-yl)phenyl)-2-oxotetrahydropyrimidin-1(2H)-yl)ethyl)piperidin-1-yl)-2-(2,6-dioxopiperidin-3-yl)-6-fluoroisoindoline-1,3-dione]	45%	75%	122 nM
O=C1CCC(N2C(=O)c3ccc(N4CC(CCN5CCCN(c6cccc(-c7cnc8c(cnn8C8CC8)c7)c6)C5=O)C4)cc3C2=O)C(=O)N1 (stereo not drawn) [Compound 22, 5-(3-(2-(3-(3-(1-cyclopropyl-1H-pyrazolo[3,4-b]pyridin-5-yl)phenyl)-2-oxotetrahydropyrimidin-1(2H)-yl)ethyl)azetidin-1-yl)-2-(2,6-dioxopiperidin-3-yl)isoindoline-1,3-dione]	29%	29%	> 1000 nM
